The source made the active and inactive calls. The rule behind the calls is not given here.
Tests used:
[1] = Solubility of compound assessed as precipitate formation at 250 uM at pH 2 to 8 incubated for 30 mins in presence of 3 to 10 mM CaCl2 by turbidimetric assay; assay type: physicochemical; conditions: buffer, pH 2, 0.5 h
[2] = biological target: Toxin B (Clostridioides difficile) (UniProt P18177); assay: Stabilization of His6 tagged Clostridioides difficile Toxin B truncated cysteine protease domain (543 to 799 residues) extracted from Escherichia coli BL21 (DE3) assessed as change in melting temperature by SYPRO Orange dye based differential scanning fluorometry analysis
Sequence of Toxin B (Clostridioides difficile) (P18177 whole entry, the tested form may be a part): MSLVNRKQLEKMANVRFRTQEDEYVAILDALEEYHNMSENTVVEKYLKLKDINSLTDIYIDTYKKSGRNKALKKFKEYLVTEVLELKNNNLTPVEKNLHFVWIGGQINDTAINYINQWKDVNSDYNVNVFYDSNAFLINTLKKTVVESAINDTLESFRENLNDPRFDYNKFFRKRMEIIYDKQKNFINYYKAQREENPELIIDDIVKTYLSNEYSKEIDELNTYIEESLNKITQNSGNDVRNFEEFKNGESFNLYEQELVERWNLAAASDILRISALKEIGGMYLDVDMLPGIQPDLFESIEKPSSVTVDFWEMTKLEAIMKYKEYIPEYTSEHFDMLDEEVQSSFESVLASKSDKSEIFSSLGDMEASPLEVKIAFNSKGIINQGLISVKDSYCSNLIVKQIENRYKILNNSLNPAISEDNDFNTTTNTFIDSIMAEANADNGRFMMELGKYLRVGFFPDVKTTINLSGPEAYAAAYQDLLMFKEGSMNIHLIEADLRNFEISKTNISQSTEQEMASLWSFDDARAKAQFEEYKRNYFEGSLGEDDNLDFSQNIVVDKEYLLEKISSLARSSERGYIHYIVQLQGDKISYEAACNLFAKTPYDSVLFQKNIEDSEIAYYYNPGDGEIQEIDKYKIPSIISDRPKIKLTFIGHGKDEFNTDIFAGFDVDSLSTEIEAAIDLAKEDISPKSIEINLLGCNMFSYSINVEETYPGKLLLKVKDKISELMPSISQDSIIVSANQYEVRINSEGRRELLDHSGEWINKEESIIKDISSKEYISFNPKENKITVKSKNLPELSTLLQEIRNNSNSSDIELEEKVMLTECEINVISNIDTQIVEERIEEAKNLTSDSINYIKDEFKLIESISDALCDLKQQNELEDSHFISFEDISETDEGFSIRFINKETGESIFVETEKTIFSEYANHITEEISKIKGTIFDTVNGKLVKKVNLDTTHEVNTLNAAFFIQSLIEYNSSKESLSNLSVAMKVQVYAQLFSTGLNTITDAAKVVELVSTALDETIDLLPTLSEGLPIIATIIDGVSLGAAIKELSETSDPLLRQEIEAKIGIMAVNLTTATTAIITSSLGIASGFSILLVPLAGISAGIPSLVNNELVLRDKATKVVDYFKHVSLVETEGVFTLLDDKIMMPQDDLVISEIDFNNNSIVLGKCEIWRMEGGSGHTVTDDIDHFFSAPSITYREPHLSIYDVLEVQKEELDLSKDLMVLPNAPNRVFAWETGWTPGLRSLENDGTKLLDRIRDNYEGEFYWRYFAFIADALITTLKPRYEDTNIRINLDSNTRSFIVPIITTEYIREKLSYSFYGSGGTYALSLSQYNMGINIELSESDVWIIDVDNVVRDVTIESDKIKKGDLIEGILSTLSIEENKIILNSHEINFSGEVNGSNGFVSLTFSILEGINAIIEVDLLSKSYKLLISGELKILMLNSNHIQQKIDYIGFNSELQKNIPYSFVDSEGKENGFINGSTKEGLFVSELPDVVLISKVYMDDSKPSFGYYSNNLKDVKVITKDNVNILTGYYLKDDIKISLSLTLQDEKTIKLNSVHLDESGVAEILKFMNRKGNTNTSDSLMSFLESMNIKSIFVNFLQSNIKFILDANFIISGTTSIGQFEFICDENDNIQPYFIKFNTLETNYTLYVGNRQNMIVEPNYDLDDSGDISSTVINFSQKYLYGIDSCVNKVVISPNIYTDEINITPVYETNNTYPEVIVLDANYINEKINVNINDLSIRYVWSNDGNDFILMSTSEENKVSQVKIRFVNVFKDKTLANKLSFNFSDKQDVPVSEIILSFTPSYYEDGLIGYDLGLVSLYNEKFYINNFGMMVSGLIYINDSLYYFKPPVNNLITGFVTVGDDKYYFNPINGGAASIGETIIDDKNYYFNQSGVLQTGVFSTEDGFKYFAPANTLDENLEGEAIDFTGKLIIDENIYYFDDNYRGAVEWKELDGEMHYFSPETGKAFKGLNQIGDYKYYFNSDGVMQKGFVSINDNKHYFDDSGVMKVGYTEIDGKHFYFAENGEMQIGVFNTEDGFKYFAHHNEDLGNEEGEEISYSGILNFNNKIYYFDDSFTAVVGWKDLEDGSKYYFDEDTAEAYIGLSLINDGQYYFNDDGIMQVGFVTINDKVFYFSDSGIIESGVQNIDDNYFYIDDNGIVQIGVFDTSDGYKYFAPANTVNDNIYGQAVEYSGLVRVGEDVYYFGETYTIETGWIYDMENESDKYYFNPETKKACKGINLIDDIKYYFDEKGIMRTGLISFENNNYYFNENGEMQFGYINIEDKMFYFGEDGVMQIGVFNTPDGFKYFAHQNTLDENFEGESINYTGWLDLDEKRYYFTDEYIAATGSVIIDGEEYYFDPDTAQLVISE

[3] = biological target: Toxin B (Clostridioides difficile) (UniProt P18177); assay: Allosteric activation of Clostridioides difficile Toxin B assessed as induction of autoproteolysis by measuring increase in TcdB cleavage at 50 uM incubated for 3 hrs in presence of 100 uM ZnCl2 by silver staining based SDS-PAGE analysis
[4] = biological target: Toxin B (Clostridioides difficile) (UniProt P18177); assay: Binding affinity to His6 tagged Clostridioides difficile Toxin B truncated cysteine protease domain (543 to 799 residues) extracted from Escherichia coli BL21 (DE3) assessed as change in number of bound protons per binding interaction at 530 uM by ITC analysis; conditions: filed as positive allosteric modulator
Toxin B [5] = biological target: T1, Toxin B (Clostridioides difficile, UniProt P18177); assay: Binding affinity to His6 tagged Clostridioides difficile Toxin B truncated cysteine protease domain (543 to 799 residues) extracted from Escherichia coli BL21 (DE3) assessed as dissociation constant in presence of 10 mM Ca2+ by ITC method
T1 sequence (P18177 whole entry, the tested form may be a part): as above

[6] = Solubility of compound assessed as precipitate formation at 250 uM at pH 2 to 8 incubated for 30 mins in presence of 1.25 to 10 mM MgCl2 by turbidimetric assay; assay type: physicochemical; conditions: buffer, pH 2, 0.5 h
[7] = Metal chelating activity assessed as compound-Mg2+ complex formation by measuring reduction in free cation concentration at 200 uM in presence of 200 uM MgCl2 by colorimetric assay
[8] = Solubility of compound assessed as precipitate formation at 250 uM at pH 2 to 8 incubated for 30 mins in presence of 20 to 100 uM ZnCl2 by turbidimetric assay; assay type: physicochemical; conditions: buffer, pH 2, 0.5 h
Toxin B [9] = biological target: T1, Toxin B; assay: Allosteric activation of Clostridioides difficile Toxin B assessed as induction of autoproteolysis measured after 3 hrs by Western blot based extent cleavage assay
[10] = biological target: Toxin B (Clostridioides difficile) (UniProt P18177); assay: Allosteric activation of Clostridioides difficile Toxin B assessed as induction of autoproteolysis by measuring increase in TcdB cleavage at 50 uM incubated for 3 hrs in presence of 3 mM CaCl2 by silver staining based SDS-PAGE analysis
Toxin B [11] = biological target: T1, Toxin B; assay: Binding affinity to His6 tagged Clostridioides difficile Toxin B truncated cysteine protease domain (543 to 799 residues) extracted from Escherichia coli BL21 (DE3) assessed as dissociation constant by ITC method
[12] = biological target: Toxin B (Clostridioides difficile) (UniProt P18177); assay: Allosteric activation of Clostridioides difficile Toxin B assessed as induction of autoproteolysis by measuring increase in TcdB cleavage at 50 uM incubated for 3 hrs in presence of 1.25 mM MgCl2 by silver staining based SDS-PAGE analysis
Toxin B [13] = biological target: T1, Toxin B; assay: Allosteric activation of Clostridioides difficile Toxin B assessed as induction of autoproteolysis measured after 3 hrs in presence of CaCl2, MgCl2, ZnCl2 by Western blot based extent cleavage assay
[14] = Metal chelating activity assessed as compound-Ca2+ complex formation by measuring reduction in free cation concentration at 200 uM in presence of 200 uM CaCl2 by colorimetric assay
[15] = Metal chelating activity assessed as compound-Mg2+ complex formation by measuring precipitation at 250 uM at pH 2 to 8 incubated for 30 mins in presence of 1.25 to 10 mM MgCl2 by turbidimetric assay
[16] = biological target: Toxin B (Clostridioides difficile) (UniProt P18177); assay: Allosteric activation of Clostridioides difficile Toxin B assessed as induction of autoproteolysis by measuring maximal extent cleavage measured after 3 hrs by Western blot based extent cleavage assay relative to control; conditions: filed as positive allosteric modulator
[17] = biological target: Toxin B (Clostridioides difficile) (UniProt P18177); assay: Stabilization of His6 tagged Clostridioides difficile apo-Toxin B truncated cysteine protease domain (543 to 799 residues) extracted from Escherichia coli BL21 (DE3) assessed as chemical shift perturbation by measuring increase in number of peaks by 1H-15N-HSQC NMR analysis (reference value: 141)
[18] = biological target: Toxin B (Clostridioides difficile) (UniProt P18177); assay: Allosteric activation of Clostridioides difficile Toxin B assessed as induction of autoproteolysis by measuring increase in TcdB cleavage at 50 uM incubated for 3 hrs in presence of 10 mM MgCl2 by silver staining based SDS-PAGE analysis
[19] = biological target: Toxin B (Clostridioides difficile) (UniProt P18177); assay: Competitive binding affinity to His6 tagged Clostridioides difficile […]-Toxin B truncated cysteine protease domain (543 to 799 residues) extracted from Escherichia coli BL21 (DE3) assessed as peaks with change in chemical shift perturbation at 350 uM by 31P-NMR analysis
[20] = Metal chelating activity assessed as compound-Ca2+ complex formation by measuring precipitation at 250 uM at pH 2 to 8 incubated for 30 mins in presence of 3 to 10 mM CaCl2 by turbidimetric assay
[21] = biological target: Toxin B (Clostridioides difficile) (UniProt P18177); assay: (§1) Competitive binding affinity to His6 tagged Clostridioides difficile Toxin B truncated cysteine protease domain (543 to 799 residues) extracted from Escherichia coli BL21 (DE3) assessed as peaks with change in chemical shift perturbation by measuring residual activity at 350 uM in presence of 1,3,5-(Tri-O-thiophosphate)-myo-inositol-2,4,6-tri-O-sulfate by 1H-15N-HSQC NMR analysis relative to control; conditions: filed as positive allosteric modulator
[22] = biological target: Toxin B (Clostridioides difficile) (UniProt P18177); assay: Allosteric activation of Clostridioides difficile Toxin B assessed as induction of autoproteolysis by measuring increase in TcdB cleavage at 50 uM incubated for 3 hrs in presence of 10 mM CaCl2 by silver staining based SDS-PAGE analysis relative to control
[23] = biological target: Toxin B (Clostridioides difficile) (UniProt P18177); assay: Allosteric activation of Clostridioides difficile Toxin B assessed as induction of autoproteolysis by measuring increase in TcdB cleavage at 50 uM measured after 3 hrs by silver staining based SDS-PAGE analysis relative to control; conditions: filed as positive allosteric modulator
[24] = biological target: Toxin B (Clostridioides difficile) (UniProt P18177); assay: Stabilization of His6 tagged Clostridioides difficile holo-Toxin B truncated cysteine protease domain (543 to 799 residues) extracted from Escherichia coli BL21 (DE3) assessed as peaks with change in chemical shift perturbation at 350 uM by 1H-15N-HSQC NMR analysis relative to control
[25] = biological target: Toxin B (Clostridioides difficile) (UniProt P18177); assay: as §1, with “(1R,2r,3S,4R,5s,6S)-cyclohexane-1,2,3,4,5,6-hexayl hexakis (dihydrogen phosphate)” for “1,3,5-(Tri-O-thiophosphate)-myo-inositol-2,4,6-tri-O-sulfate”; conditions: filed as positive allosteric modulator
[26] = biological target: Toxin B (Clostridioides difficile) (UniProt P18177); assay: Allosteric activation of Clostridioides difficile Toxin B assessed as induction of autoproteolysis by measuring increase in TcdB cleavage measured after 3 hrs by silver staining based SDS-PAGE analysis; conditions: filed as positive allosteric modulator
[27] = filed as positive allosteric modulator

Row | SMILES | solubility [1] | ΔTm [2] | Activity [3] | Activity [4] | Kd (Toxin B [5]) | solubility [6] | Activity [7] | solubility [8] | EC50 (Toxin B [9]) | Activity [10] | Kd (Toxin B [11]) | Activity [12] | EC50 (Toxin B [13]) | Activity [14] | other results
1 | O=S(=O)(O)O[C@@H]1[C@@H](OP(O)(O)=S)[C@H](OS(=O)(=O)O)[C@H](OS(=O)(=O)O)[C@H](OS(=O)(=O)O)[C@H]1OP(O)(O)=S | Soluble | 5.3 °C | inactive | 0.11 | 4.69 µM | Soluble | Active | Soluble | 27.1 µM | inactive | 2.2 µM | inactive | 557 µM | Active | 
2 | O=P(O)(O)O[C@H]1[C@H](OP(=O)(O)O)[C@@H](OP(=O)(O)O)[C@H](OP(=O)(O)O)[C@@H](OP(=O)(O)O)[C@H]1OP(=O)(O)O [PHYTIC ACID] |  | 3.3 °C | inactive | -1.28 |  |  |  |  | 8.39 µM | inactive | 1.36 µM | inactive | 536 µM |  | Activity [15]: Active; Activity [16]: 98%; Activity [17]: 193; Activity [18]: 23%; Activity [19]: inactive; Activity [20]: Active; Activity [21]: 47%; Activity [22]: 6%
3 | O=S(=O)(O)O[C@@H]1[C@@H](OS(=O)(=O)O)[C@H](OS(=O)(=O)O)[C@H](OP(O)(O)=S)[C@H](OS(=O)(=O)O)[C@H]1OS(=O)(=O)O | Soluble |  |  |  |  | Soluble |  | Soluble |  |  | 7.14 µM |  |  |  | 
4 | OP(O)(=S)O[C@H]1[C@H](OP(O)(O)=S)[C@@H](OP(O)(O)=S)[C@H](OP(O)(O)=S)[C@@H](OP(O)(O)=S)[C@H]1OP(O)(O)=S | Soluble | 5.6 °C | inactive |  |  | Soluble | Active | Soluble | 2.31 µM | inactive | 0.184 µM | inactive | 657 µM | Active | 
5 | O=S(=O)(O)O[C@H]1[C@@H](OS(=O)(=O)O)[C@H](OS(=O)(=O)O)[C@@H](OP(O)(O)=S)[C@H](OS(=O)(=O)O)[C@H]1OS(=O)(=O)O |  | 3.1 °C | inactive |  |  |  | Active |  |  | inactive | 2.19 µM | inactive |  | Active | Activity [23]: Active
6 | O=S(=O)(O)O[C@H]1[C@H](OP(O)(O)=S)[C@@H](OS(=O)(=O)O)[C@H](OP(O)(O)=S)[C@@H](OS(=O)(=O)O)[C@H]1OP(O)(O)=S |  |  |  | -0.01 | 5.37 µM |  |  |  |  |  | 2.26 µM |  |  |  | 
7 | O=S(=O)(O)O[C@H]1[C@H](OP(O)(O)=S)[C@H](OS(=O)(=O)O)[C@H](OP(O)(O)=S)[C@@H](OS(=O)(=O)O)[C@@H]1OP(O)(O)=S | Soluble | 5.1 °C | inactive | -0.03 | 2.66 µM | Soluble | Active | Soluble | 3.56 µM | inactive | 0.662 µM | inactive | 113 µM | Active | Activity [24]: 49%; Activity [16]: 117%; Activity [17]: 208; Activity [18, 27]: 42%; Activity [23]: Active; Activity [25]: 7%; Activity [19, 27]: Active; Activity [22, 27]: 51%
8 | O=P(O)(O)O[C@@H]1[C@@H](OP(=O)(O)O)[C@H](OP(=O)(O)O)[C@H](OCc2ccccc2)[C@H](OP(=O)(O)O)[C@H]1OP(=O)(O)O |  |  |  |  |  |  |  |  |  |  |  |  |  |  | Activity [26]: Active
